# In patent US20240190851A1, “FURAN FUSED RING-SUBSTITUTED GLUTARIMIDE COMPOUND” (MEDSHINE DISCOVERY INC., priority 2021, published 2024):
# Counter-ions that a name gives are not always drawn.
# What was measured:
# [1] = test system: human prostate cancer LNCaP cells; experiment: Antiproliferative effect in LNCaP cells (CellTiter-Glo, 6 days); format: cell-based; conditions: 144 h
# Procedure: In this experiment, the inhibitory effect of the test compound on cell proliferation in human prostate cancer LNCaP cells was detected.
# The tumor cell lines were cultured in a 37° C., 5% CO2 incubator under the above culture conditions. Regular passage, and cells in logarithmic growth phase were taken for plating.
# 2. Cell Plating • (1) Cells were stained with trypan blue and viable cells were counted; • (2) the cell concentration was adjusted to an appropriate concentration;
# • (3) 90 μL of cell suspension per well was added to the culture plate as shown in the table above, and cell-free culture medium was added to the blank control well; • (4) the culture plate was cultured overnight in a 37° C., 5% CO2 incubator with 100% relative humidity.
# Preparation of stock solution storage plate with 400 times the initial concentration of the compound: The compound was serially diluted with DMSO from the highest concentration to the lowest concentration. The solution was prepared as needed each time.
# Preparation of Working Solution with 10 Times the Initial Concentration of Compounds and Cell Treatment with Compounds • (1) To a V-bottom 96-well plate was added 78 μL of cell culture medium, and 2 μL of compound was pipetted from a stock solution storage plate with 400 times the initial concentration of the compound and added to the cell culture medium of the 96-well plate. To vehicle control and blank control was added 2 μL of DMSO. After the compound or DMSO was added, blowing with a pipette and mixing well were carried out. • (2) Administration: 10 μL of a working solution with 10 times the initial concentration of the compound was added to the cell culture plate. To vehicle control and blank control was added 10 μL of DMSO-cell culture medium mixture. • (3) The 96-well plate was returned to the incubator and cultured for 6 days.
# The following steps were performed according to the instructions of Promega CellTiter-Glo luminescent cell viability assay kit (Promega-G7573). • (1) CellTiter-Glo buffer was melted and brought to room temperature; • (2) CellTiter-Glo substrate was brought to room temperature; • (3) CellTiter-Glo working solution was prepared by adding 100 mL of CellTiter-Glo buffer to a vial of CellTiter-Glo substrate to dissolve the substrate; • (4) the mixture was slowly vortexed and shaken to be fully dissolved; • (5) the cell culture plate was taken out and left for 30 minutes to equilibrate to room temperature; • (6) 50 μL of CellTiter-Glo working solution was added per well (equal to half the volume of cell culture medium per well). The cell plate was wrapped in aluminum foil to be protected from light; • (7) the culture plate was shaken on an orbital shaker for 2 minutes to induce cell lysis; (8) the culture plate was left at room temperature for 10 minutes to stabilize the luminescent signal; • (9) the luminescent signal was detected on a 2104 EnVision plate reader.
# The inhibition rate (IR) of the test compound was calculated using the following formula: IR (%)=(RLU vehicle control−RLU compound)/(RLU vehicle control−RLU blank control)×100%. The inhibition rates of compounds at different concentrations were calculated in Excel, and then GraphPad Prism software was used to plot inhibition curves and calculate relevant parameters, including minimum inhibition rate, maximum inhibition rate, and ICSO.
# [2] = test system: human prostate cancer LNCaP xenograft tumor; experiment: In vivo pharmacodynamic study, LNCaP subcutaneous xenograft tumor CB-17 SCID model; design: species or system CB-17 SCID mice; conditions: WX002 30 mg/kg (D0-D3), 50 mg/kg (D4-D21) p.o. BID
# Procedure: Human prostate cancer LNCaP cells (ECACC-89110211) were cultured in vitro in a monolayer under the culture conditions of RPMI-1640 medium with 10% fetal bovine serum, […], and 100 μg/mL streptomycin, and cultured in a 37° C., 5% CO2 incubator.
# Routine digestion with trypsin-EDTA was performed twice a week for passaging. When the cell saturation density was 80% to 90% and the number of cells reached the required level, the cells were collected, counted, and inoculated.
# CB-17 SCID mice, 6 to 8 weeks old, male, weighing 18 to 22 g.
# 0.2 mL (1×10^7) of LNCaP cells (with matrix gel, volume ratio of 1:1) were subcutaneously inoculated on the right back of each mouse. The mice were subjected to surgical castration when the average tumor volume reached approximately 80 mm^3, and grouping and administration were initiated when the average tumor volume reached 166 mm^3.
# Tumor diameters were measured twice a week with a vernier caliper. The formula for calculating tumor volume was: V=0.5a×b^2, wherein a and b represented the long and short diameters of the tumor, respectively.
# The antitumor efficacy of compounds was evaluated by TGI (%). TGI (%) reflected the tumor growth inhibition rate. TGI (0%)=[(1−(average tumor volume at the end of administration in a treatment group−average tumor volume at the beginning of administration in this treatment group))/(average tumor volume at the end of treatment in the vehicle control group−average tumor volume at the beginning of treatment in the vehicle control group)]×100%.
Structure (SMILES),IC50 [1],"Tumor volume (Day 0) ([2]; Day 0, start of administration)",TGI (Day 21) ([2]; Day 21),Tumor volume (Day 21) ([2]; Day 21)
N#Cc1ccc(O[C@H]2CC[C@H](NC(=O)c3ccc(N4CCC(CN5CCN(c6cccc7c6ccc6occ(C8CCC(=O)NC8=O)c67)CC5)CC4)nn3)CC2)cc1Cl (some centres unmarked) [Hydrochloride of WX015],45 nM,,,
CC1(C)C(=O)N(c2ccc(C#N)c(C(F)(F)F)c2)C(=S)N1c1ccc(OCCN2CCN(CC(=O)Nc3ccc4c(C5CCC(=O)NC5=O)coc4c3)CC2)c(F)c1 (centres unmarked) [WX002],46 nM,166 ± 18 mm^3,89.1%,219 ± 39 mm^3
